# Test results as given in patent US8343990B2, “Substituted cyclopropyl compounds, compositions containing such compounds and methods of treatment” (Merck Sharp & Dohme Corp., priority 2008, dated 2013).
# Where a name gives a salt, the structure may show the parent alone.
# Biological target: T1, GPR119 receptor (UniProt Q8TDV5, S309L, species not given)
# T1 sequence (Q8TDV5 1-335 S309L): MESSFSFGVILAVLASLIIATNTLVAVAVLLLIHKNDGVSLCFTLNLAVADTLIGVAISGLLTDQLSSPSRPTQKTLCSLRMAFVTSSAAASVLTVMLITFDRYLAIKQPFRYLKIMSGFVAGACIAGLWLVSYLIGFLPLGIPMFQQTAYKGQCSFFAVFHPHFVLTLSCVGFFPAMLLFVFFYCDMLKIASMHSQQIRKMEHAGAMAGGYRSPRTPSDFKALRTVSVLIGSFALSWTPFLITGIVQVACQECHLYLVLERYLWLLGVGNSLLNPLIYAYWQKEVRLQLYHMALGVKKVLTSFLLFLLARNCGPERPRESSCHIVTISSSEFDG
# Assay: GPR119 signaling, cyclic AMP (cAMP) homogenous time resolved fluorescence (HTRF) assay
# Assay type: cell-based
# Details: CHO cells with Gα15 and murine GPR119, or HEK293 Flp-In cells with human GPR119 S309L; table does not say which; read-out: Activity: inflection points, denoted as EC50 values (agonist activation of GPR119, cAMP)
# From the text: Measurement of GPR119 Signaling Using a Cyclic AMP (cAMP) Homogenous Time Resolved Fluorescence (HTRF) Assay
# Chinese hamster ovary (CHO) cell lines stably transfected with the permissive guanine nucleotide binding protein alpha 15 (Gα15) and […] GPR119 were maintained in DMEM media containing FBS, penicillin-streptomycin, puromycin, and G418 (geneticin). Alternatively, human embryonic kidney (HEK)293 Flp-In cells (Invitrogen, Carlsbad, Calif.) were stably transfected with a human SNP variant (S309L) of GPR119 and maintained in DMEM media containing FBS, penicillin-streptomycin, and hygromycin. Agonist activation of the GPR119 receptor was measured in receptor transfected cells described above, treated with compounds of this invention, using a commercial homogenous time resolved fluorescence (HTRF) kit for measurement of cAMP (CisBio, Bedford, Mass.). The assay was performed in 96-well half-volume plates (murine) or 384-well plates (human) following the manufacturers instructions. Briefly, suspended cells were incubated with a dose titration of test compound at room temperature for 60 min, lysed, and incubated with HTRF reagents for an additional 60 min. The plate was read using an Envision multilabel reader (Perkin Elmer) adjusted to read time resolved fluorescence and the cAMP concentrations were extrapolated from a cAMP calibration curve. […] The concentration of test compound required to stimulate a half-maximal response (EC50), and efficacy as compared to an internal agonist control, was determined from a sigmoidal 4-parameter curve fit of the resulting plot of normalized activity versus compound concentration.
row,SMILES,EC50 [µM]
1,"Cc1nnc(-c2ccc(OCC[C@H]3C[C@H]3C3CCN(c4ncc(Cl)cc4Cl)CC3)cc2F)o1 (racemic) [Ex 88, Rac-cis-3,5-dichloro-2-[4-(2-{2-[3-fluoro-4-(5-methyl-1,3,4-oxadiazol-2-yl)phenoxy]ethyl}cyclopropyl)piperidin-1-yl]pyridine]",> 0.2
2,"Clc1cnc(N2CCC(C3CC3CCOc3ccncc3)CC2)nc1 (racemic) [Ex 92, rac-trans-5-chloro-2-(4-{2-[2-(pyridin-4-yloxy)ethyl]cyclopropyl}piperidin-1-yl)pyrimidine]",0.05 to 0.2
3,"Clc1cnc(N2CCC(C3CC3CCOc3ccncc3)CC2)nc1 (racemic) [Ex 98, rac-trans-5-chloro-2-(4-{2-[2-(pyridin-4-yloxy)ethyl]cyclopropyl}piperidin-1-yl)pyrimidine]",0.05 to 0.2
4,"CS(=O)(=O)c1ccc(OC[C@@H]2C[C@H]2CC2CCN(c3ncc(Cl)cn3)CC2)cc1 (racemic) [Ex 101, rac-trans-5-chloro-2-{4-[(2-{[4-(methylsulfonyl)phenoxy]methyl}cyclopropyl)methyl]piperidin-1-yl}pyrimidine]",0.05 to 0.2
5,"N#Cc1ccc(OC[C@@H]2C[C@H]2CC2CCN(c3ncc(Cl)cn3)CC2)cc1F (racemic) [Ex 104, Rac-trans-4-[(2-{[1-(5-chloropyrimidin-2-yl)piperidin-4-yl]methyl}cyclopropyl)methoxy]-2-fluorobenzonitrile]",0.05 to 0.2
6,"Cc1nc(C#N)cc(OC[C@@H]2C[C@H]2CC2CCN(c3ncc(Cl)cn3)CC2)n1 (racemic) [Ex 113, rac-trans-6-[(2-{[1-(5-chloropyrimidin-2-yl)piperidin-4-yl]methyl}cyclopropyl)methoxy]-2-methylpyrimidine-4-carbonitrile]",0.05 to 0.2
7,"Cc1cc(OC[C@@H]2C[C@H]2CC2CCN(c3ncc(Cl)cn3)CC2)nc(C#N)n1 (racemic) [Ex 114, rac-trans-4-[(2-{[1-(5-chloropyrimidin-2-yl)piperidin-4-yl]methyl}cyclopropyl)methoxy]-6-methylpyrimidine-2-carbonitrile]",0.05 to 0.2
8,"CS(=O)(=O)c1ccc(OC[C@H]2C[C@H]2CC2CCN(c3ncc(Cl)cn3)CC2)cc1 (racemic) [Ex 116, rac-cis-5-chloro-2-{-4-[(2-{[4-(methylsulfonyl)phenoxy]methyl}cyclopropyl)methyl]piperidin-1-yl}pyrimidine]",> 0.2
9,"Cc1cc(OC[C@@H]2C[C@@H]2CC2CCN(c3ncc(Cl)cn3)CC2)nc(C#N)n1 (racemic) [Ex 118, rac-cis-4-[(2-{[1-(5-chloropyrimidin-2-yl)piperidin-4-yl]methyl}cyclopropyl)methoxy]-6-methylpyrimidine-2-carbonitrile]",0.01 to 0.05
10,"N#Cc1ccc(OC[C@@H]2C[C@@H]2CC2CCN(c3ncc(Cl)cn3)CC2)cc1F (racemic) [Ex 119, rac-cis 4-[(2-{[1-(5-chloropyrimidin-2-yl)piperidin-4-yl]methyl}cyclopropyl)methoxy]-2-fluorobenzonitrile]",> 0.2

# Continued, values first:
row,EC50 [µM],SMILES
1,< 0.01,"Cc1nnc(-c2ccc(OCC[C@H]3C[C@H]3C3CCN(c4ncc(Cl)c(C)n4)CC3)cc2F)o1 (racemic) [Ex 87, Rac-cis-5-chloro-2-[4-(2-{2-[3-fluoro-4-(5-methyl-1,3,4-oxadiazol-2-yl)phenoxy]ethyl}cyclopropyl)piperidin-1-yl]-4-methylpyrimidine]"
2,< 0.01,"Cc1nnc(-c2ccc(OCC[C@H]3C[C@H]3C3CCN(c4ccc(C(F)(F)F)cn4)CC3)cc2F)o1 (racemic) [Ex 89, Rac-cis-2-[4-(2-{2-[3-fluoro-4-(5-methyl-1,3,4-oxadiazol-2-yl)phenoxy]ethyl}cyclopropyl)piperidin-1-yl]-5-(trifluoromethyl)pyridinium trifluoroacetate]"
3,0.01 to 0.05,"CS(=O)(=O)c1ccc(OCC[C@@H]2C[C@H]2C2CCN(c3ncc(Cl)cn3)CC2)cc1 (racemic) [Ex 90, rac-trans-5-chloro-2-[4-(2-{2-[4-(methylsulfonyl)phenoxy]ethyl}cyclopropyl)piperidin-1-yl]pyrimidine]"
4,0.01 to 0.05,"Cc1cc(OCC[C@@H]2C[C@H]2C2CCN(c3ncc(Cl)cn3)CC2)nc(C#N)n1 (racemic) [Ex 99, rac-trans-4-{2-{2-[1-(5-chloropyrimidin-2-yl)piperidin-4-yl]cyclopropyl}ethoxy)-6-methylpyrimidine-2-carbonitrile]"
5,0.01 to 0.05,"Cc1nc(C#N)cc(OCCC2CC2C2CCN(c3ncc(Cl)cn3)CC2)n1 (racemic) [Ex 100, rac trans 6-(2-{2-[1-(5-chloropyrimidin-2-yl)piperidin-4-yl]cyclopropyl}ethoxy)-2-methylpyrimidine-4-carbonitrile]"
6,< 0.01,"O=C(NC1CC1)c1ccc(OC[C@@H]2C[C@H]2CC2CCN(c3ncc(Cl)cn3)CC2)cc1F (racemic) [Ex 106, Rac-trans 4-[(2-{[1-(5-chloropyrimidin-2-yl)piperidin-4-yl]methyl}cyclopropyl)methoxy]-N-cyclopropyl-2-fluorobenzamide]"
7,0.01 to 0.05,"Fc1cc(OC[C@@H]2C[C@H]2CC2CCN(c3ncc(Cl)cn3)CC2)ccc1-c1nnc(C2CC2)o1 (racemic) [Ex 111, rac-trans 5-chloro-2-{4-[(2-{[4-(5-cyclopropyl-1,3,4-oxadiazol-2-yl)-3-fluorophenoxy]methyl}cyclopropyl)methyl]piperidin-1-yl}pyrimidine]"
8,0.01 to 0.05,"N#Cc1ccc(OCC2CC2CC2CCN(c3ncc(Cl)cn3)CC2)c(F)c1 (racemic) [Ex 115, rac-trans-4-[((1S,2S)-2-{[1-(5-chloropyrimidin-2-yl)piperidin-4-yl)methyl}cyclopropyl)methoxy]-3-fluorobenzonitrile]"
9,0.01 to 0.05,"O=C(NC1CC1)c1ccc(OC[C@@H]2C[C@@H]2CC2CCN(c3ncc(Cl)cn3)CC2)cc1F (racemic) [Ex 117, rac-cis 4-[(2-{[1-(5-chloropyrimidin-2-yl)piperidin-4-yl]methyl}cyclopropyl)methoxy]-N-cyclopropyl-2-fluorobenzamide]"
10,< 0.01,"C[S+]([O-])c1ccc(OCCC2CC2C2CCN(c3ncc(Cl)cn3)CC2)cc1 (single isomer, unassigned) [Ex 33, Chiral-cis-5-chloro-2-[4-(2-{2-[4-(methylsulfinyl)phenoxy]ethyl}cyclopropyl)piperidin-1-yl]pyrimidine]"
11,< 0.01,"Cc1nc(C#N)cc(OCCC2CC2C2CCN(c3ncc(Cl)cn3)CC2)n1 (single isomer, unassigned) [Ex 34, Chiral-cis-6-(2-{2-[1-(5-chloropyrimidin-2-yl)piperidin-4-yl]cyclopropyl}ethoxy)-2-methylpyrimidine-4-carbonitrile]"
12,< 0.01,"Cc1cnc(N2CCC(C3CC3CCOc3cc(C#N)nc(C)n3)CC2)nc1 (single isomer, unassigned) [Ex 39, Chiral-cis-2-methyl-6-(2-{2-[1-(5-methylpyrimidin-2-yl)piperidin-4-yl]cyclopropyl}ethoxy)pyrimidine-4-carbonitrile]"
13,< 0.01,"Clc1cnc(N2CCC(C3CC3CCOc3ccc(-n4ccnn4)cn3)CC2)nc1 (single isomer, unassigned) [Ex 55a, Chiral cis-5-chloro-2-{4-[2-(2-{[5-(1H-1,2,3-triazol-1-yl)pyridin-2-yl]oxy}ethyl)cyclopropyl]piperidin-1-yl}pyrimidine]"
